Reference: PubChem BioAssay (NCI)
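In this assay, cells in 96-well plates receive the compound at five concentrations for 48 hours. Endpoints are linearly interpolated between the surrounding concentrations. GI50: concentration for 50% inhibition of growth. The concentration for full growth arrest is given as TGI.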

Legend:
Assay in all cases: NCI tumour cell line growth inhibition, 48 h
SK-MEL-5 melanoma = test system: SK-MEL-5 melanoma
PC-3 prostate = test system: PC-3 prostate
SK-MEL-28 melanoma = test system: SK-MEL-28 melanoma
MCF7 breast = test system: MCF7 breast
MALME-3M melanoma = test system: MALME-3M melanoma
OVCAR-3 ovarian = test system: OVCAR-3 ovarian
A549 NSCLC = test system: A549 NSCLC
MOLT-4 leukemia = test system: MOLT-4 leukemia
HCT-15 colon = test system: HCT-15 colon
SF-539 CNS = test system: SF-539 CNS
SW-620 colon = test system: SW-620 colon
LOX IMVI melanoma = test system: LOX IMVI melanoma
M14 melanoma = test system: M14 melanoma
MDA-MB-231 breast = test system: MDA-MB-231 breast
SNB-19 CNS = test system: SNB-19 CNS
IGROV1 ovarian = test system: IGROV1 ovarian
NCI-H23 lung = test system: NCI-H23 lung
SNB-75 CNS = test system: SNB-75 CNS
HCT-116 colon = test system: HCT-116 colon
HS 578T breast = test system: HS 578T breast
HCC-2998 colon = test system: HCC-2998 colon
UACC-257 melanoma = test system: UACC-257 melanoma
SF-268 CNS = test system: SF-268 CNS
SR leukemia = test system: SR leukemia
OVCAR-5 ovarian = test system: OVCAR-5 ovarian
A498 renal = test system: A498 renal
RPMI-8226 leukemia = test system: RPMI-8226 leukemia
NCI-H460 lung = test system: NCI-H460 lung
DU-145 prostate = test system: DU-145 prostate
BT-549 breast = test system: BT-549 breast
K-562 leukemia = test system: K-562 leukemia
KM12 colon = test system: KM12 colon
NCI-H226 lung = test system: NCI-H226 lung
U251 CNS = test system: U251 CNS
COLO 205 colon = test system: COLO 205 colon
OVCAR-8 ovarian = test system: OVCAR-8 ovarian
HOP-62 NSCLC = test system: HOP-62 NSCLC
SF-295 CNS = test system: SF-295 CNS
NCI/ADR-RES ovarian = test system: NCI/ADR-RES ovarian
RXF 393 renal = test system: RXF 393 renal
CCRF-CEM leukemia = test system: CCRF-CEM leukemia
786-0 renal = test system: 786-0 renal
SN12C renal = test system: SN12C renal
SK-OV-3 ovarian = test system: SK-OV-3 ovarian
CAKI-1 renal = test system: CAKI-1 renal
OVCAR-4 ovarian = test system: OVCAR-4 ovarian
NCI-H522 lung = test system: NCI-H522 lung
EKVX NSCLC = test system: EKVX NSCLC
ACHN renal = test system: ACHN renal
UO-31 renal = test system: UO-31 renal
UACC-62 melanoma = test system: UACC-62 melanoma
HL-60(TB) leukemia = test system: HL-60(TB) leukemia
MDA-MB-435 = test system: MDA-MB-435
TK-10 renal = test system: TK-10 renal
T-47D breast = test system: T-47D breast
SK-MEL-2 melanoma = test system: SK-MEL-2 melanoma

## ClCc1ccccc1Cn1cnc2c(Cl)nc(Cl)nc21
SK-MEL-5 melanoma
  GI50: 0.104 µM
  TGI: 0.501 µM
PC-3 prostate
  GI50: 0.425 µM
  TGI: 1.61 µM
SK-MEL-28 melanoma
  GI50: 0.942 µM
  TGI: 2.48 µM
MCF7 breast
  GI50: 0.118 µM
  TGI: > 100 µM
MALME-3M melanoma
  GI50: 1.22 µM
  TGI: 3.59 µM
OVCAR-3 ovarian
  GI50: 0.547 µM
  TGI: 1.17 µM
A549 NSCLC
  GI50: 2.82 µM
  TGI: 8.8 µM
MOLT-4 leukemia
  GI50: 0.574 µM
  TGI: 1.59 µM
HCT-15 colon
  TGI: 0.139 µM
SF-539 CNS
  GI50: 0.17 µM
  TGI: 0.467 µM
SW-620 colon
  GI50: < 0.0392 µM
  TGI: 0.0647 µM
LOX IMVI melanoma
  GI50: < 0.0395 µM
  TGI: 0.169 µM
M14 melanoma
  GI50: 0.453 µM
  TGI: 1.07 µM
MDA-MB-231 breast
  TGI: 0.295 µM
SNB-19 CNS
  GI50: 1.04 µM
  TGI: 2.24 µM
IGROV1 ovarian
  GI50: 0.996 µM
  TGI: 2.53 µM
NCI-H23 lung
  GI50: 0.485 µM
  TGI: 1.02 µM
SNB-75 CNS
  GI50: 0.892 µM
  TGI: 2.14 µM
HCT-116 colon
  GI50: 0.0605 µM
  TGI: 0.188 µM
HS 578T breast
  GI50: 1.19 µM
  TGI: 3.55 µM
HCC-2998 colon
  GI50: 0.315 µM
  TGI: 1.32 µM
UACC-257 melanoma
  GI50: 1.9 µM
  TGI: 4 µM
SF-268 CNS
  GI50: 0.115 µM
  TGI: 0.556 µM
SR leukemia
  GI50: 1.77 µM
  TGI: 4.93 µM
OVCAR-5 ovarian
  GI50: 0.471 µM
  TGI: 1.21 µM
A498 renal
  GI50: 2.05 µM
  TGI: 4 µM
RPMI-8226 leukemia
  GI50: 0.139 µM
  TGI: 0.501 µM
NCI-H460 lung
  GI50: 2.29 µM
  TGI: 7.15 µM
DU-145 prostate
  GI50: 0.207 µM
  TGI: 0.743 µM
BT-549 breast
  GI50: 0.46 µM
  TGI: 1.5 µM
K-562 leukemia
  GI50: 0.189 µM
  TGI: 1.94 µM
KM12 colon
  GI50: 1.48 µM
  TGI: 2.95 µM
NCI-H226 lung
  GI50: 0.603 µM
  TGI: 1.59 µM
U251 CNS
  GI50: 0.222 µM
  TGI: 0.602 µM
COLO 205 colon
  GI50: 0.163 µM
  TGI: 0.362 µM
OVCAR-8 ovarian
  GI50: 1.44 µM
  TGI: 2.98 µM
HOP-62 NSCLC
  GI50: 1.38 µM
  TGI: 2.78 µM
SF-295 CNS
  GI50: 1.58 µM
  TGI: 3.11 µM
NCI/ADR-RES ovarian
  GI50: 0.552 µM
  TGI: 1.33 µM
RXF 393 renal
  GI50: 1.46 µM
  TGI: 3.01 µM
CCRF-CEM leukemia
  GI50: 0.0313 µM
  TGI: 0.0939 µM
786-0 renal
  GI50: 0.167 µM
  TGI: 0.634 µM
SN12C renal
  GI50: 0.362 µM
  TGI: 1.02 µM
SK-OV-3 ovarian
  GI50: 1.95 µM
  TGI: 3.7 µM
CAKI-1 renal
  GI50: 0.728 µM
  TGI: 1.59 µM
OVCAR-4 ovarian
  GI50: 1.03 µM
  TGI: 2.55 µM
NCI-H522 lung
  GI50: 0.964 µM
  TGI: 2.6 µM
EKVX NSCLC
  GI50: 0.332 µM
  TGI: 0.811 µM
ACHN renal
  GI50: 0.0785 µM
  TGI: 0.316 µM
UO-31 renal
  GI50: 0.379 µM
  TGI: 1.44 µM
UACC-62 melanoma
  GI50: 0.408 µM
  TGI: 0.865 µM
HL-60(TB) leukemia
  GI50: 0.181 µM
  TGI: 1.35 µM
MDA-MB-435
  GI50: 1.64 µM
  TGI: 3.27 µM
TK-10 renal
  GI50: 1.02 µM
  TGI: 2.49 µM
T-47D breast
  GI50: 1.99 µM
  TGI: 5.46 µM
SK-MEL-2 melanoma
  GI50: 2.25 µM
  TGI: 4.72 µM
